Laboratory results published in patent US20240218022A1, “ANTI-VISTA MACROCYCLIC PEPTIDES AND COMPOSITIONS” (BRISTOL-MYERS SQUIBB COMPANY, priority 2022, published 2024).
Read-outs that look alike come from different tables or passages of the source. Blank lines part the entries; values can stand above or below the compound they belong to. Starred links: 1 amine or outer side, 2 acyl side, 3 side chain; linkers in the order of their positions; H or OH if unused. Positions of bridges follow the written chain, without caps; N, C: chain ends. Non-standard residues stand in square brackets, D forms with d. Residues, ends and D or L forms follow the SMILES beside them. ξ: configuration not given here. Phe(4-CONH2) = NC(=O)c1ccc(C[C@H](N)C(=O)O)cc1; Phe(3-Me) = Cc1cccc(C[C@H](N)C(=O)O)c1; γGlu = O=C(O)[C@H](CCC(=O)[*:2])N[*:1]; 2Nal = N[C@@H](Cc1ccc2ccccc2c1)C(=O)O; βAsp = O=C(O)[C@H](CC(=O)[*:2])N[*:1]; Cit = NC(=O)NCCC[C@H](N)C(=O)O; Ahp(2) = CCCCC[C@H](N)C(=O)O; NMeNle = CCCC[C@H](NC)C(=O)O; Tle = CC(C)(C)[C@H](N)C(=O)O; NHexGly = CCCCCCNCC(=O)O; Nle = CCCC[C@H](N)C(=O)O; Orn = NCCC[C@H](N)C(=O)O; Aun = NCCCCCCCCCCC(=O)O; Dab = NCC[C@H](N)C(=O)O; ξD = NC(CC(=O)O)C(=O)O; AEEA = NCCOCCOCC(=O)O; ξP = O=C(O)C1CCCN1

Target: T1, mouse VISTA (mVISTA) (Mus musculus, UniProt Q9D659)
T1 construct: expressed in transfected cells; host or cells: Human embryonic kidney 293T cells
T1 sequence (Q9D659 33-308): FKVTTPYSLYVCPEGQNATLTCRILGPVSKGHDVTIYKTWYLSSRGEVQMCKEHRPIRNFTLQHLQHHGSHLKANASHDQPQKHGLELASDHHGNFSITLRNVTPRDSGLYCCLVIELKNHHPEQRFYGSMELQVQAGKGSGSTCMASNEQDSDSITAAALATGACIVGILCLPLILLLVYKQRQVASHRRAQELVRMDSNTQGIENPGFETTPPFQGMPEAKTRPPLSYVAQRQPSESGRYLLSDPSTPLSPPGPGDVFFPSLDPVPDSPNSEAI
Assay: Cell-Based Binding High-Content Assay For mVISTA (HC CBA mVISTA)
Procedure, shortened: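 mVISTA-293T, 4,000 cells/well; cpd ± washout step; biotin-peptide 2 nM final, 30 min RT; SA-Alexa 647 30 min; formaldehyde/Hoechst fix; HCS imaging; 4PL IC50.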

[1] = cell-based binding high-content assay, mVISTA, the 16th table, read-out: HC CBA mVISTA IC50
[2] = 293T cells expressing mouse VISTA, competition with biotinylated peptide (2 nM), read-out: HC CBA mVISTA IC50

IC50 (read-out: HC CBA mVISTA IC50): 0.036 µM
SMILES: CCCCCCN1CC(=O)N[C@@H](Cc2ccc(O)cc2)C(=O)N[C@@H](CCCC)C(=O)N[C@@H](CC(N)=O)C(=O)N[C@@H](CCCNC(=N)N)C(=O)N(C)[C@@H](CCCC)C(=O)N[C@@H](CCCCC)C(=O)N2CCC[C@H]2C(=O)N[C@@H](C(C)C)C(=O)N[C@@H](CC(=O)O)C(=O)N[C@H](C(=O)N[C@@H](CCN)C(=O)N[C@@H](CCC(N)=O)C(=O)O)CSCC(=O)N[C@@H](Cc2ccccc2)C(=O)N[C@@H](Cc2c[nH]c3ccccc23)C(=O)N[C@@H](CC(=O)O)C1=O [compound 1132] ({CH2CO}-FWD[NHexGly]Y[Nle]NR[NMeNle][Ahp(2)]PVDC[Dab]Q-OH; thioether N-14)

IC50 (cell-based binding high-content assay, read-out: HC CBA miPrISTA IC50): 0.0257 µM
SMILES: CCCCCCN1CC(=O)N[C@@H](Cc2ccc(O)cc2)C(=O)N[C@@H](CCCC)C(=O)N[C@@H](CC(N)=O)C(=O)N[C@@H](CCCNC(=N)N)C(=O)N(C)[C@@H](CCCC)C(=O)N[C@@H](CCCCC)C(=O)N2CCC[C@H]2C(=O)N[C@@H](C(C)C)C(=O)N[C@@H](CC(=O)O)C(=O)N[C@H](C(=O)NCCOCCOCC(=O)N[C@@H](CC(=O)O)C(=O)NCCOCCOCC(=O)NCCCCCCCCCCC(=O)O)CSCC(=O)N[C@@H](Cc2ccccc2)C(=O)N[C@@H](Cc2c[nH]c3ccccc23)C(=O)N[C@@H](CC(=O)O)C1=O [compound 2293] ({CH2CO}-FWD[NHexGly]Y[Nle]NR[NMeNle][Ahp(2)]PVDC[AEEA]D[AEEA][Aun]-OH; thioether N-14)

IC50 (read-out: HC CBA mVISTA IC50): 0.0323 µM
SMILES: CCCCCCN1CC(=O)N[C@@H](Cc2ccc(O)cc2)C(=O)N[C@@H](CC(C)C)C(=O)NCC(=O)N[C@@H](CCCNC(=N)N)C(=O)N[C@@H](CC(C)C)C(=O)N[C@@H](CCCCC)C(=O)N2CCC[C@H]2C(=O)N[C@@H](C(C)C)C(=O)N2CCC[C@H]2C(=O)N[C@H](C(=O)NCC(=O)O)CSCC(=O)N[C@@H](Cc2ccccc2)C(=O)N[C@@H](Cc2ccc(O)cc2)C(=O)N[C@@H](CC(=O)O)C1=O [compound 1124] ({CH2CO}-FYD[NHexGly]YLGRL[Ahp(2)]PVPCG-OH; thioether N-14)

IC50 (cell-based binding high-content assay, mVISTA, the 15th table, read-out: HC CBA mVISTA IC50): 0.0132 µM
SMILES: CCCCCCN1CC(=O)N[C@@H](Cc2ccc(O)cc2)C(=O)N[C@@H](CCCC)C(=O)N[C@@H](CC(N)=O)C(=O)N[C@@H](CCCNC(=N)N)C(=O)N[C@@H](CC(C)C)C(=O)N[C@@H](CCCCC)C(=O)N2CCC[C@H]2C(=O)N[C@@H](C(C)C)C(=O)N[C@@H](CC(=O)O)C(=O)N[C@H](C(=O)NCC(=O)O)CSCC(=O)N[C@@H](Cc2ccc3ccccc3c2)C(=O)N[C@@H](Cc2c[nH]c3ccccc23)C(=O)N[C@@H](CC(=O)O)C1=O [compound 1229] ({CH2CO}-[2Nal]WD[NHexGly]Y[Nle]NRL[Ahp(2)]PVDCG-OH; thioether N-14)

IC50 [1]: 0.0229 µM
SMILES: CCCCCCN1CC(=O)N[C@@H](Cc2ccc(O)cc2)C(=O)N[C@@H](CC(C)C)C(=O)NCC(=O)N[C@@H](CCCNC(=N)N)C(=O)N[C@@H](CC(C)C)C(=O)N[C@@H](CCCCC)C(=O)N2CCC[C@H]2C(=O)N[C@@H](C(C)C)C(=O)N[C@@H](CC(=O)O)C(=O)N[C@H](C(=O)NCC(N)=O)CSCC(=O)N[C@@H](Cc2ccc3ccccc3c2)C(=O)N[C@@H](Cc2ccc(O)cc2)C(=O)N[C@@H](CC(=O)O)C1=O [Ex 1281] ({CH2CO}-[2Nal]YD[NHexGly]YLGRL[Ahp(2)]PVDCG-NH2; thioether N-14)

IC50 (read-out: HC CBA mVISTA IC50): 0.0175 µM
SMILES: CCCCCCN1CC(=O)N[C@@H](Cc2ccc(O)cc2)C(=O)N[C@@H](CCCC)C(=O)N[C@@H](CC(=O)O)C(=O)N[C@@H](CCCN)C(=O)N[C@@H](CC(C)C)C(=O)N[C@@H](CCCCC)C(=O)N2CCC[C@H]2C(=O)N[C@@H](C(C)C)C(=O)N[C@@H](CC(=O)O)C(=O)N[C@H](C(=O)NC(CC(=O)O)C(N)=O)CSCC(=O)N[C@@H](Cc2ccccc2)C(=O)N[C@@H](Cc2cccc(C)c2)C(=O)N[C@@H](CC(=O)O)C1=O (some centres unmarked) [compound 1326] ({CH2CO}-F[Phe(3-Me)]D[NHexGly]Y[Nle]D[Orn]L[Ahp(2)]PVDC[ξD]-NH2; thioether N-14)

IC50 [2]: 0.0093 µM
SMILES: CCCCCCN1CC(=O)N[C@@H](Cc2ccc(O)cc2)C(=O)N[C@@H](CCCCC)C(=O)NCC(=O)N[C@@H](CCCNC(N)=O)C(=O)N[C@@H](CC(C)C)C(=O)N[C@@H](CCCCC)C(=O)N2CCC[C@H]2C(=O)N[C@@H](C(C)C)C(=O)N[C@@H](CO)C(=O)N[C@H](C(=O)NCC(N)=O)CSCC(=O)N[C@@H](Cc2ccccc2)C(=O)N[C@@H](Cc2ccc(O)cc2)C(=O)N[C@@H](CC(=O)O)C1=O [Example 1064] ({CH2CO}-FYD[NHexGly]Y[Ahp(2)]G[Cit]L[Ahp(2)]PVSCG-NH2; thioether N-14)

IC50 [1]: 0.0049 µM
SMILES: CCCCCCN1CC(=O)N[C@@H](Cc2ccc(O)cc2)C(=O)N[C@@H](CCCC)C(=O)N[C@@H](CC(N)=O)C(=O)N[C@@H](CCCNC(N)=O)C(=O)N[C@@H](CC(C)C)C(=O)N[C@@H](CCCCC)C(=O)N2CCC[C@H]2C(=O)N[C@@H](C(C)C)C(=O)N[C@@H](CC(=O)O)C(=O)N[C@H](C(=O)NCC(=O)O)CSCC(=O)N[C@@H](Cc2ccc3ccccc3c2)C(=O)N[C@@H](Cc2ccc(O)cc2)C(=O)N[C@@H](CC(=O)O)C1=O [Ex 1300] ({CH2CO}-[2Nal]YD[NHexGly]Y[Nle]N[Cit]L[Ahp(2)]PVDCG-OH; thioether N-14)

IC50 [2]: 0.0371 µM
SMILES: CCCCCCN1CC(=O)N[C@@H](Cc2ccc(O)cc2)C(=O)N[C@@H](C(C)C)C(=O)NCC(=O)N[C@@H](CCCNC(=N)N)C(=O)N[C@@H](CC(C)C)C(=O)N[C@@H](CCCCC)C(=O)N2CCC[C@H]2C(=O)N[C@@H](C(C)C)C(=O)N[C@@H](CC(=O)O)C(=O)N[C@H](C(=O)N[C@@H](CO)C(=O)N[C@@H](CCCN)C(=O)N[C@@H](CCC(N)=O)C(=O)O)CSCC(=O)N[C@@H](Cc2ccc3ccccc3c2)C(=O)N[C@@H](Cc2ccc(O)cc2)C(=O)N[C@@H](CC(=O)O)C1=O [Example 1160] ({CH2CO}-[2Nal]YD[NHexGly]YVGRL[Ahp(2)]PVDCS[Orn]Q-OH; thioether N-14)

IC50 (read-out: HC CBA mVISTA IC50): 0.0144 µM
SMILES: CCCCCCN1CC(=O)N[C@@H](Cc2ccc(O)cc2)C(=O)N[C@@H](CCCC)C(=O)N[C@@H](CC(=O)O)C(=O)N[C@@H](CCCNC(=N)N)C(=O)N[C@@H](CC(C)C)C(=O)N[C@@H](CCCCC)C(=O)N2CCCC2C(=O)N[C@@H](C(C)C)C(=O)N[C@@H](CC(N)=O)C(=O)N[C@H](C(=O)NCC(=O)N[C@@H](CC(=O)NCCOCCOCC(=O)N[C@@H](CC(=O)O)C(=O)NCCOCCOCC(=O)NCCCCCCCCCCC(=O)O)C(=O)O)CSCC(=O)N[C@@H](Cc2ccccc2)C(=O)N[C@@H](Cc2ccc(O)cc2)C(=O)N[C@@H](CC(=O)O)C1=O (some centres unmarked) [compound 2108] ({CH2CO}-FYD[NHexGly]Y[Nle]DRL[Ahp(2)][ξP]VNCG[βAsp][AEEA]D[AEEA][Aun]-OH; thioether N-14)

IC50 (cell-based binding high-content assay, mVISTA, read-out: HC CBA miPrISTA IC50): 0.0211 µM
SMILES: CCCCCCN1CC(=O)N[C@@H](Cc2ccc(O)cc2)C(=O)N[C@@H](CC(C)C)C(=O)N[C@@H](CC(N)=O)C(=O)N[C@@H](CCCN)C(=O)N(C)[C@@H](CCCC)C(=O)N[C@@H](CCCCC)C(=O)N2CCC[C@H]2C(=O)N[C@@H](C(C)(C)C)C(=O)N[C@@H](C(C)C)C(=O)N[C@H](C(=O)N[C@@H](CC(=O)NCCOCCOCC(=O)N[C@@H](CC(=O)O)C(=O)NCCOCCOCC(=O)NCCCCCCCCCCC(=O)O)C(=O)O)CSCC(=O)N[C@@H](Cc2ccccc2)C(=O)N[C@@H](Cc2cccc(C)c2)C(=O)N[C@@H](CC(=O)O)C1=O [compound 2072] ({CH2CO}-F[Phe(3-Me)]D[NHexGly]YLN[Orn][NMeNle][Ahp(2)]P[Tle]VC[βAsp][AEEA]D[AEEA][Aun]-OH; thioether N-14)

IC50 (read-out: HC CBA mVISTA IC50): 0.0381 µM
SMILES: CCCCCCN1CC(=O)N[C@@H](Cc2ccc(O)cc2)C(=O)N[C@@H](CCCC)C(=O)N[C@@H](CC(N)=O)C(=O)N[C@@H](CCCNC(=N)N)C(=O)N(C)[C@@H](CCCC)C(=O)N[C@@H](CCCCC)C(=O)N2CCC[C@H]2C(=O)N[C@@H](C(C)(C)C)C(=O)N[C@@H](CO)C(=O)N[C@H](C(=O)NCCOCCOCC(=O)N[C@@H](CCC(=O)NCCOCCOCC(=O)NCCCCCCCCCCC(=O)O)C(=O)O)CSCC(=O)N[C@@H](Cc2ccc(C(N)=O)cc2)C(=O)N[C@@H](Cc2ccc(O)cc2)C(=O)N[C@@H](CC(=O)O)C1=O [compound 2259] ({CH2CO}-[Phe(4-CONH2)]YD[NHexGly]Y[Nle]NR[NMeNle][Ahp(2)]P[Tle]SC[AEEA][γGlu][AEEA][Aun]-OH; thioether N-14)

IC50 [1]: 0.0406 µM
SMILES: CCCCCCN1CC(=O)N[C@@H](Cc2ccc(O)cc2)C(=O)N[C@@H](CCCC)C(=O)NCC(=O)N[C@@H](CCCNC(=N)N)C(=O)N[C@@H](CC(C)C)C(=O)N[C@@H](CCCCC)C(=O)N2CCC[C@H]2C(=O)N[C@@H](C(C)C)C(=O)N[C@@H](CO)C(=O)N[C@H](C(=O)NCC(N)=O)CSCC(=O)N[C@@H](Cc2ccc3ccccc3c2)C(=O)N[C@@H](Cc2ccc(O)cc2)C(=O)N[C@@H](CC(=O)O)C1=O [Ex 1276] ({CH2CO}-[2Nal]YD[NHexGly]Y[Nle]GRL[Ahp(2)]PVSCG-NH2; thioether N-14)

IC50 [2]: 0.0297 µM
SMILES: CCCCCCN1CC(=O)N[C@@H](Cc2ccc(O)cc2)C(=O)N[C@@H](C(C)C)C(=O)NCC(=O)N[C@@H](CCCNC(=N)N)C(=O)N[C@@H](CC(C)C)C(=O)N[C@@H](CCCCC)C(=O)N2CCC[C@H]2C(=O)N[C@@H](C(C)C)C(=O)N[C@@H](CO)C(=O)N[C@H](C(=O)NCC(N)=O)CSCC(=O)N[C@@H](Cc2ccccc2)C(=O)N[C@@H](Cc2ccc(O)cc2)C(=O)N[C@@H](CC(=O)O)C1=O [Example 1054] ({CH2CO}-FYD[NHexGly]YVGRL[Ahp(2)]PVSCG-NH2; thioether N-14)
